# Measurements published in PubChem BioAssay AID192 (DTP/NCI, 2004).
# Several values for one entry are separate records, joined by “and”; a condition that tells them apart may be missing. Equal values may be shown once. Toxic doses and inconclusive results are not listed.
# Test system: BDF1 mice, B16 melanoma ip, median survival T/C
# Assay: NCI In Vivo Anticancer Drug Screen. Data for tumor model B16 Melanoma (intraperitoneal) in B6D2F1 (BDF1) mice
# Conditions: endpoint: median survival time, higher = longer survival
# How it was run: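 The ratio T/C compares compound-treated mice with vehicle-treated controls, using survival or tumor size as the endpoint in a transplantable tumor model.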
# [1] = dose: 12.5 mg/kg/injection, schedule: Q01DX009 (ip), vehicle: Klucel (hydroxypropylcellulose) (HPC)
# [2] = dose: 100.0 mg/kg/injection, schedule: Q01DX009 (ip), vehicle: saline
# [3] = dose: 200.0 mg/kg/injection, schedule: Q01DX009 (ip), vehicle: saline
# [4] = dose: 25.0 mg/kg/injection, schedule: Q01DX009 (ip), vehicle: Klucel (hydroxypropylcellulose) (HPC)
# [5] = dose: 50.0 mg/kg/injection, schedule: Q01DX009 (ip), vehicle: Klucel (hydroxypropylcellulose) (HPC)
# [6] = dose: 100.0 mg/kg/injection, schedule: Q01DX009 (ip), vehicle: Klucel (hydroxypropylcellulose) (HPC)
# [7] = dose: 200.0 mg/kg/injection, schedule: Q01DX009 (ip), vehicle: Klucel (hydroxypropylcellulose) (HPC)
# [8] = dose: 100.0 mg/kg/injection, schedule: Q04DX003 (ip), vehicle: saline with Tween-80
# [9] = dose: 200.0 mg/kg/injection, schedule: Q04DX003 (ip), vehicle: saline with Tween-80
# [10] = dose: 12.5 mg/kg/injection, schedule: Q01DX009 (ip), vehicle: saline
# [11] = dose: 25.0 mg/kg/injection, schedule: Q01DX009 (ip), vehicle: saline
# [12] = dose: 50.0 mg/kg/injection, schedule: Q01DX009 (ip), vehicle: saline
# [13] = dose: 50.0 mg/kg/injection, schedule: Q01DX009 (ip), vehicle: other
smiles,measurement,setting,value
c1ccc2c(c1)nnn1c3cnccc3nc21,T/C,"dose: 1.56 mg/kg/injection, schedule: Q01DX009 (ip), vehicle: saline with Tween-80",110 % of control
same,T/C,"dose: 3.12 mg/kg/injection, schedule: Q01DX009 (ip), vehicle: saline with Tween-80",97 % of control and 111 % of control
same,T/C,"dose: 6.25 mg/kg/injection, schedule: Q01DX009 (ip), vehicle: saline with Tween-80",93 % of control and 107 % of control
same,T/C,"dose: 12.5 mg/kg/injection, schedule: Q01DX009 (ip), vehicle: saline with Tween-80",106 % of control and 121 % of control
N=C(N)SCc1ccc(CSC(=N)N)s1,T/C,"dose: 7.5 mg/kg/injection, schedule: Q01DX009 (ip), vehicle: saline",101 % of control
same,T/C,"dose: 15.0 mg/kg/injection, schedule: Q01DX009 (ip), vehicle: saline",99 % of control
same,T/C,"dose: 30.0 mg/kg/injection, schedule: Q01DX009 (ip), vehicle: saline",104 % of control
FC(F)(F)C(=Cc1nc2ccccc2s1)C(F)(F)F,T/C,"dose: 6.25 mg/kg/injection, schedule: Q01DX009 (ip), vehicle: Klucel (hydroxypropylcellulose) (HPC)",103 % of control
same,T/C,[1],100 % of control
COC1=C(C)C(=O)C2=C(C1=O)C(CO)N1C(C#N)C3CC4C(C1C2N1CCOC41)N3C (configuration not stated),T/C,"dose: 0.25 mg/kg/injection, schedule: Q01DX009 (ip), vehicle: saline + alcohol",117 % of control
same,T/C,"dose: 0.5 mg/kg/injection, schedule: Q01DX009 (ip), vehicle: saline + alcohol",117 % of control
same,T/C,"dose: 1.0 mg/kg/injection, schedule: Q01DX009 (ip), vehicle: saline + alcohol",112 % of control
O=C(O)c1ccc(S(=O)(=O)N(Cl)Cl)cc1,T/C,[2],110 % of control
same,T/C,[3],113 % of control
same,T/C,"dose: 400.0 mg/kg/injection, schedule: Q01DX009 (ip), vehicle: saline",104 % of control
Cc1cc(N(CCOS(C)(=O)=O)CCOS(C)(=O)=O)ccc1C=Nc1ccc(-c2nc(Cc3ccccc3)sc2C)cc1,T/C,[4],165 % of control
same,T/C,[5],174 % of control
same,T/C,[6],107 % of control
CC(C)N(C(=O)c1ccccc1Cl)c1ccccc1,T/C,[4],93 % of control
same,T/C,[6],106 % of control
Cc1ccc([N+](=O)[O-])cc1NC(=O)Oc1ccc(Cl)cc1Cl,T/C,"dose: 25.0 mg/kg/injection, schedule: Q01DX009 (ip), vehicle: saline with Tween-80",93 % of control
same,T/C,"dose: 50.0 mg/kg/injection, schedule: Q01DX009 (ip), vehicle: saline with Tween-80",90 % of control
OC[CH2][Hg][Br],T/C,"dose: 0.37 mg/kg/injection, schedule: Q01DX009 (ip), vehicle: saline",97 % of control
same,T/C,"dose: 0.75 mg/kg/injection, schedule: Q01DX009 (ip), vehicle: saline",94 % of control
same,T/C,"dose: 1.5 mg/kg/injection, schedule: Q01DX009 (ip), vehicle: saline",94 % of control
same,T/C,"dose: 3.0 mg/kg/injection, schedule: Q01DX009 (ip), vehicle: saline",93 % of control
COc1ccc(-c2c(N)nc(=S)[nH]c2C(=O)O)cc1,T/C,[5],94 % of control
same,T/C,[6],105 % of control
same,T/C,[7],94 % of control
c1ccc(-c2nc(N3CCOCC3)nc3ccccc23)cc1,T/C,[8],104 % of control
same,T/C,[9],88 % of control
O=c1cc2oc3c(O)c(O)ccc3c3c4ccccc4c(=O)c(c1)c23,T/C,[10],103 % of control
same,T/C,[11],90 % of control
O=[N+]([O-])OCc1c(Cl)nc(Cl)c(Cl)c1Cl,T/C,"dose: 15.0 mg/kg/injection, schedule: Q01DX009 (ip), vehicle: Klucel (hydroxypropylcellulose) (HPC)",111 % of control
same,T/C,"dose: 30.0 mg/kg/injection, schedule: Q01DX009 (ip), vehicle: Klucel (hydroxypropylcellulose) (HPC)",108 % of control
same,T/C,"dose: 60.0 mg/kg/injection, schedule: Q01DX009 (ip), vehicle: Klucel (hydroxypropylcellulose) (HPC)",88 % of control
C=C(OC1C(C)=C2C(C1OC(=O)CCCCCCC)C(C)(OC(C)=O)CC(OC(=O)CCC)C1(O)C2OC(=O)C1(C)O)/C(C)=C/C (configuration not stated),T/C,"dose: 0.37 mg/kg/injection, schedule: Q01DX009 (ip), vehicle: Klucel (hydroxypropylcellulose) (HPC)",97 % of control
same,T/C,"dose: 1.5 mg/kg/injection, schedule: Q01DX009 (ip), vehicle: Klucel (hydroxypropylcellulose) (HPC)",99 % of control
same,T/C,"dose: 3.0 mg/kg/injection, schedule: Q01DX009 (ip), vehicle: Klucel (hydroxypropylcellulose) (HPC)",115 % of control
CC(=O)Oc1ccc(OC(C)=O)c2c1C(=O)C=CC2=O,T/C,"dose: 0.5 mg/kg/injection, schedule: Q01DX009 (ip), vehicle: Klucel (hydroxypropylcellulose) (HPC)",86 % of control
same,T/C,"dose: 1.0 mg/kg/injection, schedule: Q01DX009 (ip), vehicle: Klucel (hydroxypropylcellulose) (HPC)",88 % of control
COc1ccc(N=C=Nc2ccc(OC)cc2)cc1,T/C,[1],93 % of control
same,T/C,[4],91 % of control
CCN(CC)CCN(C)C,T/C,[12],118 % of control
same,T/C,[2],112 % of control
same,T/C,[3],103 % of control
CCCCCCCCCCCC(c1ccccc1)[N+](C)(C)C (configuration not stated),T/C,"dose: 1.0 mg/kg/injection, schedule: Q01DX009 (ip), vehicle: saline sonified",105 % of control
same,T/C,"dose: 2.0 mg/kg/injection, schedule: Q01DX009 (ip), vehicle: saline sonified",110 % of control
same,T/C,"dose: 4.0 mg/kg/injection, schedule: Q01DX009 (ip), vehicle: saline sonified",105 % of control
same,T/C,"dose: 8.0 mg/kg/injection, schedule: Q01DX009 (ip), vehicle: saline sonified",100 % of control
COC(=O)C1CCC[N+](C)(C)C1 (configuration not stated),T/C,[10],100 % of control
same,T/C,[11],100 % of control
same,T/C,[12],91 % of control
CCCCn1c(=S)[nH]c2ccccc2c1=O,T/C,[6],98 % of control
same,T/C,[7],96 % of control
same,T/C,"dose: 400.0 mg/kg/injection, schedule: Q01DX009 (ip), vehicle: Klucel (hydroxypropylcellulose) (HPC)",98 % of control
C=C1C(=O)O[C@@H]2/C=C(\C)CC/C=C(/COC(C)=O)C[C@@H](OC(C)=O)[C@@H]12,T/C,"dose: 5.0 mg/kg/injection, schedule: Q01DX009 (ip), vehicle: saline with Tween-80",107 % of control
same,T/C,"dose: 10.0 mg/kg/injection, schedule: Q01DX009 (ip), vehicle: saline with Tween-80",99 % of control
same,T/C,"dose: 18.0 mg/kg/injection, schedule: Q01DX009 (ip), vehicle: acetone",95 % of control
same,T/C,"dose: 20.0 mg/kg/injection, schedule: Q01DX009 (ip), vehicle: saline with Tween-80",104 % of control
ClCC[N-]CC[N-]CCCl.ClCC[N-]CC[N-]CCCl.[O-][Cl+3]([O-])([O-])O.[Zn+2],T/C,"dose: 2.5 mg/kg/injection, schedule: Q01DX009 (ip), vehicle: Klucel (hydroxypropylcellulose) (HPC)",106 % of control
same,T/C,"dose: 5.0 mg/kg/injection, schedule: Q01DX009 (ip), vehicle: Klucel (hydroxypropylcellulose) (HPC)",92 % of control
same,T/C,"dose: 10.0 mg/kg/injection, schedule: Q01DX009 (ip), vehicle: Klucel (hydroxypropylcellulose) (HPC)",101 % of control
same,T/C,"dose: 20.0 mg/kg/injection, schedule: Q01DX009 (ip), vehicle: Klucel (hydroxypropylcellulose) (HPC)",104 % of control
Cn1c2nc3ccccc3c-2nc2ccccc21,T/C,"dose: 1.56 mg/kg/injection, schedule: Q01DX009 (ip), vehicle: water",95 % of control
same,T/C,"dose: 3.13 mg/kg/injection, schedule: Q01DX009 (ip), vehicle: water",96 % of control
same,T/C,"dose: 6.25 mg/kg/injection, schedule: Q01DX009 (ip), vehicle: other",105 % of control
same,T/C,"dose: 6.25 mg/kg/injection, schedule: Q01DX009 (ip), vehicle: water",90 % of control
same,T/C,"dose: 12.5 mg/kg/injection, schedule: Q01DX009 (ip), vehicle: other",104 % of control
same,T/C,"dose: 25.0 mg/kg/injection, schedule: Q01DX009 (ip), vehicle: other",97 % of control
same,T/C,[5],87 % of control
same,T/C,[13],92 % of control
C1CCC(OB2OB(OC3CCCCC3)OB(OC3CCCCC3)O2)CC1,T/C,[13],103 % of control
same,T/C,"dose: 100.0 mg/kg/injection, schedule: Q01DX009 (ip), vehicle: other",93 % of control
same,T/C,"dose: 200.0 mg/kg/injection, schedule: Q01DX009 (ip), vehicle: other",102 % of control
O=C(OCc1ccccc1)C(=O)OCc1ccccc1,T/C,"dose: 100.0 mg/kg/injection, schedule: Q01DX009 (ip), vehicle: saline with Tween-80",121 % of control
same,T/C,[8],100 % of control
same,T/C,[9],107 % of control
CC(Cc1ccccc1)NN (configuration not stated),T/C,"dose: 0.97 mg/kg/injection, schedule: Q01DX009 (ip), vehicle: saline",110 % of control
same,T/C,"dose: 1.95 mg/kg/injection, schedule: Q01DX009 (ip), vehicle: saline",112 % of control
same,T/C,"dose: 3.9 mg/kg/injection, schedule: Q01DX009 (ip), vehicle: saline",102 % of control
same,T/C,"dose: 7.81 mg/kg/injection, schedule: Q01DX009 (ip), vehicle: saline",112 % of control
